# Results published in article PMC12040169 (PLOS Biology, 2025).
# Assay: in vitro
# Conditions: human, hela cells, % viability
row,Compound,"viability at 28.5 h, 10 µM [%]"
1,O=C(c1ccccc1)c1ccc(OCCO)cc1 [CBK000725],94
2,COc1ccc(-c2csc(NS(=O)(=O)c3c(C)cc(Cl)cc3Cl)n2)cc1 [CBK000814],104
3,CCOC(=O)Cc1csc(NS(=O)(=O)c2cc(Cl)c(Cl)s2)n1 [CBK000847],98
4,CCOC(=O)Cc1csc(NS(=O)(=O)c2ccc(OC(F)(F)F)cc2)n1 [CBK000852],110
5,Cc1n[nH]c(=O)c2noc(C)c12 [CBK000857],108
6,Cc1cc(Cl)cc(Cl)c1S(=O)(=O)Nc1nc2c(s1)CN(C(=O)N1CCOCC1)CC2 [CBK000931],92.6
7,COc1ccccc1OCCO [CBK000949],98.3
8,Cc1c(Cl)cccc1S(=O)(=O)Nc1nc(-c2cccc([N+](=O)[O-])c2)cs1 [CBK000994],107
9,COc1ccccc1N(CCCc1cc(C(F)(F)F)cc(C(F)(F)F)c1)C(=O)C(N)C(C)C (stereo not drawn) [CBK001004T],98.5
10,CCc1csc(C(=Cc2cccs2)C(N)=O)n1 [CBK001007],90.2
11,CCC(CN(C(=O)C(N)CCCCN)c1ccc2c(c1)OCO2)c1ccccc1 (stereo not drawn) [CBK001083T],96.4
12,N=C(N)NCC(=O)N(CCc1cc(C(F)(F)F)cc(C(F)(F)F)c1)c1cccc2ccccc12 [CBK001122T],105
13,CC(C)(C)c1csc(C(=Cc2ccc(C#N)cc2)C(N)=O)n1 [CBK001154],88.7
14,COc1ccc(CSc2nc(O)cc(C(F)(F)F)n2)cc1 [CBK001217],85
15,COc1ccc(Cl)cc1NC(=O)CC(C)(C)CC(=O)O [CBK001236],90.4
16,Cc1noc(C)c1S(=O)(=O)Nc1csc(C(F)(F)F)c1-c1ccccc1 [CBK001237],91
17,COc1ccccc1NS(=O)(=O)c1ccc(N2CCN3CCCC3C2)c(N)c1 (stereo not drawn) [CBK001266],92.6
18,Cc1n[nH]c(=O)c2c(C)noc12 [CBK001281],101
19,CCCCOc1ccc(S(=O)(=O)n2ccc3cc(N4CCNCC4)ccc32)cc1 [CBK001315C],37.9
20,COc1cccc2cc([C@H]3CN(C(=O)C(C)(C)N)C[C@@H]3C(=O)N3CCC4(CC3)CN(S(C)(=O)=O)c3ccccc34)oc12 [CBK001347C],117
21,Cc1ccc(OCCn2ccnc(N3CCNCC3)c2=O)c([N+](=O)[O-])n1 [CBK001381C],88.1
22,O=S(=O)(c1ccc(-c2ccccc2)cc1)n1ccc2cc(N3CCN(Cc4ccccc4)CC3)ccc21 [CBK001388C],115
23,CN(C)Cc1ncccc1OCCO [CBK001411C],111

row,Compound,"viability at 28.5 h, 10 µM [%]"
1,OCCOc1ncnc2ccccc12 [CBK001412],107
2,O=C1CCc2cccc(OCCO)c21 [CBK001442],92.7
3,Nc1cc(S(=O)(=O)Nc2ccc(C(F)(F)F)cc2)ccc1N1CCCNCC1 [CBK001518C],87.9
4,CCOC(=O)[C@H]1CN(C(=O)C(C)(C)NC(=O)OC(C)(C)C)C[C@@H]1c1cc2cc(C)ccc2o1 [CBK001599],91.1
5,Cc1ccc2oc([C@H]3CN(C(=O)C(C)(C)NC(=O)OC(C)(C)C)C[C@@H]3C(=O)O)cc2c1 [CBK001600],86.1
6,CCOC(=O)C1CN(C(=O)N(CCN)Cc2ccc(Cl)cc2)CC1c1ccccc1 (stereo not drawn) [CBK001682C],97.8
7,CS(=O)(=O)N1CC2(CCN(C(=O)N(CCN)CCc3ccc(Cl)cc3)CC2)c2ccccc21 [CBK001687C],111
8,CCCCCNC(=O)C(Cc1ccc(O)c(C(=O)OCc2ccccc2)c1)NC(=O)OC(C)(C)C (stereo not drawn) [CBK001708],96.2
9,CCCc1cc(C(=O)NCCCN)cc(CCC)c1OCc1ccccc1 [CBK001736C],114
10,c1cncc(CNCc2ccoc2)c1 [CBK001744C],88.1
11,OC/C=C/c1cnc2ccccc2c1 [CBK001749],119
12,CC(C)(C)OC(=O)N1CCC(Oc2cncc(Cl)n2)CC1 [CBK001762],98
13,OCCOc1ccccc1N1CCOCC1 [CBK001767C],116
14,Cc1ccc(OCCO)cn1 [CBK001786],91
15,OCCNc1nc(O)cc(C(F)(F)F)n1 [CBK001804],99.5
16,COC1C(O)=CC(=O)OC1(CCc1ccco1)CCc1ccco1 (stereo not drawn) [CBK001858],86.7
17,CC(C)(C)OC(=O)N1CCN(c2nccnc2OCCO)CC1 [CBK001869],119
18,O=S(=O)(c1ccc2ccccc2c1)c1cnns1 [CBK001887],97.7
19,CC(C)(C)CCNCCN1CCOCC1 [CBK001895],92.2
20,COc1ccc(-n2cnnn2)cc1 [CBK001946],99
21,CNC(=O)c1oc(-c2ccc(OC)cc2)c(-c2ccc(OC)cc2)c1C(=O)NC [CBK001956],90.9
22,COC(=O)c1oc(-c2ccc(OC)cc2)c(-c2ccc(OC)cc2)c1C(N)=O [CBK001957],98.7
23,CC(C)(C)OC(=O)N1CCN(c2cc(N)ncn2)CC1 [CBK001963],101

row,Compound,"viability at 28.5 h, 10 µM [%]"
1,OCCOc1ccccc1-c1cc[nH]n1 [CBK001973],104
2,COc1ccc(C)cc1OCCO [CBK001975],104
3,CC(=O)N1CCN(c2ccc(OCCO)cc2)CC1 [CBK001978],90.8
4,Cc1ccc(S(=O)(=O)NC(=O)N2CCCC2)cc1 [CBK001984],87.3
5,O=C(NC1CCCC1)c1ccccc1Cl [CBK001992],98.3
6,COc1ccc(CN2C(=O)CC(c3ccccc3)C2=O)cc1 (stereo not drawn) [CBK002055],99.4
7,O=C(NC1CCCC1)c1ccc(Cl)cc1Cl [CBK002108],93.7
8,CC(CCN(CCN)C(=O)N1CCC(Cn2cncn2)(C2CCCCC2)CC1)c1ccccc1 (stereo not drawn) [CBK002130C],110
9,O=C(NC1CCCC1)c1ccc2c(c1)OCO2 [CBK002177],81
10,OC(CNCCc1cccnc1)COc1cccc2c1CCCC2 (stereo not drawn) [CBK002237],106
11,OC(CNCc1cccs1)COc1cccc2c1CCCC2 (stereo not drawn) [CBK002239],96.1
12,N#CC(CCCN1CCN(c2ccccc2)CC1)(c1ccccc1)c1ccccc1 [CBK002243C],96.8
13,COC(=O)c1cc(O)ccc1N [CBK002250],105
14,N=C(N)NCc1ccc(Cl)cc1 [CBK002260],95.7
15,O=C(CNC(=O)OCc1ccccc1)NCC(CCCN1CCN(c2ccccc2)CC1)(c1ccccc1)c1ccccc1 [CBK002293],125
16,CCOC(=O)c1c(-c2ccc(OC)cc2)noc1C(=O)c1ccccc1 [CBK002295],89.7
17,COCCNS(=O)(=O)c1ccc(C)cc1 [CBK002332],82.5
18,NC(Cc1ccccc1)CN(CC1(c2ccc(Cl)cc2)CC1)C(=O)Nc1ccc2c(c1)OCO2 (stereo not drawn) [CBK002342C],76.1
19,COc1ccc2c(ccn2S(=O)(=O)c2ccsc2C(=O)O)c1 [CBK002378],102
20,Cc1[nH]cnc1CN1CCc2c(c3ccccc3n2C)C1=O [CBK002383C],63.5
21,COc1cc(CNc2nc(O)cc(C(F)(F)F)n2)cc(OC)c1OC [CBK002390],90.3
22,COc1ccc(F)c(CN(CC(C)(C)CN)C(=O)Nc2c(F)cccc2F)c1 [CBK002405C],109
23,Cc1c(F)cccc1CN(CC(C)(C)CN)C(=O)Nc1ccc(C(F)(F)F)cc1 [CBK002417C],89.5

row,Compound,"viability at 28.5 h, 10 µM [%]"
1,Cc1cccc(CN(CC(C)(C)CN)C(=O)NC(C)c2cccc3ccccc23)n1 (stereo not drawn) [CBK002423C],84.4
2,COc1ccccc1CN(CC(C)(C)CN)C(=O)NC1C[C@H]1c1ccccc1 (stereo partly drawn) [CBK002424C],89.6
3,CC(NC(=O)N(Cc1ccc(-c2ccccc2)cc1)CC(C)(C)CN)c1cccc2ccccc12 (stereo not drawn) [CBK002426C],50.9
4,CC(C)(CN)CN(Cc1ccncc1)C(=O)Nc1ccc(C(C)(C)C)cc1 [CBK002459C],82
5,COc1ccc(F)c(CN(CC(C)(C)CN)C(=O)Nc2ccc(C(C)(C)C)cc2)c1 [CBK002461C],94
6,CC(C)(CN)CN(Cc1c[nH]c(-c2ccccc2)n1)C(=O)Nc1ccc(C(C)(C)C)cc1 [CBK002462C],87.5
7,COc1ccc(F)c(CN(CC(C)(C)CN)C(=O)Nc2ccccc2C(C)(C)C)c1 [CBK002478C],98.1
8,Cc1c(F)cccc1CN(CC(C)(C)CN)C(=O)Nc1ccc2c(c1)OCO2 [CBK002486C],87.9
9,CN1CC[C@@]2(c3cc(F)cc(F)c3)CCC(=O)CC12 (stereo partly drawn) [CBK002500],110
10,O=[N+]([O-])c1ccc(Oc2ccccc2F)cc1 [CBK002532],93.9
11,O=[N+]([O-])c1cc(F)ccc1Oc1cccc2c1CCCC2 [CBK002559],93.5
12,Cc1ccccc1COc1cccc2c1CCCC2 [CBK002562],98.2
13,COc1cc(C#N)ccc1Oc1nnnn1-c1ccccc1 [CBK002571],93.1
14,N#Cc1c(Oc2cccc(Cl)c2Cl)cccc1C(F)(F)F [CBK002592],91.1
15,O=[N+]([O-])c1cccnc1Oc1cccc(Cl)c1Cl [CBK002596],98
16,Cc1ccccc1COc1cccc(Cl)c1Cl [CBK002607],90.6
17,Cn1cnc([N+](=O)[O-])c1Sc1cccs1 [CBK002620],90.6
18,O=[N+]([O-])c1ccc(Sc2cccs2)c(C(F)(F)F)c1 [CBK002621],105
19,COc1ccc([N+](=O)[O-])c(Sc2cccs2)n1 [CBK002625],84.9
20,Clc1ccc(COc2cccc3c2CCCC3)cn1 [CBK002634],102
21,Clc1ccc(CSc2cccs2)cn1 [CBK002639],95.5

# Same assay, conditions: human, hela cells, % viability, bulk resorufin, single well
row,Compound,"viability at 28.5 h, 10 µM [%]"
1,Clc1cccc(N2CCNCC2)n1 [CBK001379],95.3
2,CCOC(=O)C1(c2ccccc2)CCN(C(=O)N(CCN)CCC(C)c2ccccc2)CC1 (stereo not drawn) [CBK002129C],82.6
3,O=C1CCCc2c1c1cccc(C(=O)O)c1n2Cc1ccccc1 [CBK002365],95.6
